Source: article PMC6680430, “Quantitative Prediction of Human Pharmacokinetics and Pharmacodynamics of CKD519, a Potent Inhibitor of Cholesteryl Ester Transfer Protein (CETP)” (Pharmaceutics, 2019)

Tests used:
[1] = overall (interspecies) PK model with allometric relationships; type: in vivo, hamster, rat, monkey; settings: for θ3 Coefficient for Vc: Vc = θ3 × WT^θ4 (θ4 fixed 1); for θ7 Coefficient for Vp: Vp = θ7 × WT^θ8 (θ8 fixed 1)
Description: The volume parameters (Vc, Vp) estimated from the PK models for three different species were correlated through simple allometric scaling (=Body weight-dependent allometry) in the PK model fitted to the overall data from all species. This method is based on the power–law function, which can be represented as follows:Y = a × BW^b,(2) where Y represents the PK parameter of interest from each animal; BW represents the average body weight of each species from the relevant in vivo studies; and a and b are the allometric coefficient and exponent of the equation, respectively.
For the allometric scaling of the clearance parameters (CL, Q) in the same model, physiological parameters such as brain weight (BrW) or maximum lifespan potential (MLP) of each species were incorporated if necessary. To address the uncertainty, two allometric relationships were selected as the final models, and two sets of human PK parameters were predicted: one from the allometry of best fit and the other from the most conventional simple allometry. The appropriateness of the extrapolated human PK parameter values was assessed by comparing them with those of the comparator. Since allometric scaling is not generally recommended for the absorption parameter, human absorption parameters were determined by the final estimates from the overall PK model instead of the allometric method.
The final allometric relationship used in the overall PK model is as follows:Parameter value in each species = a × BW^b (for volume parameters, Vc and Vp),(9) Parameter value in each species = a × BW^b/BrW (for clearance parameters, CL and Q),(10) where BrW and BW represent the average brain weight and body weight of each species, respectively, and a and b are the coefficient and exponent of the allometric relationship, respectively.
The GOF plots of the final PK model are shown in Figure 3 The final parameter estimates from the overall PK model, and the precision of parameter estimates assessed by the bootstrap method are shown in Table 5.

[2] = preclinical in vitro and in vivo efficacy studies (off-target effects)
[3] = animal full PK study in monkeys (NCA and PK model); type: in vivo, Cynomolgus monkey; settings: monkey; for Tmax: median (range)
Method: Animal PK data for analysis were collected from preclinical studies performed at ChongKunDang laboratory. All animal experiments were performed with relevant guidelines and regulations, and the protocol was approved by the Institutional Animal Care and Use Committee (IACUC) of ChongKunDang (Approval number: S-13-015). A single dose of CKD519 was administered either orally or via intravenous infusion to hamsters (intravenous dose of 0.5 mg/kg, oral dose of 3, 15, or 45 mg/kg, n = 30); rats (intravenous dose of 0.5 mg/kg, oral dose of 5, 15, or 45 mg/kg, n = 20); and monkeys (intravenous dose of 0.1 mg/kg, oral dose of 1, 5, or 30 mg/kg, n = 16). The identical solution was administered to all animal species in the fasted state. Plasma CKD519 concentration was measured before and at 0.083, 0.25, 0.5, 1, 2, 4, 8, and 24 h after administration in hamsters and rats, and before and at 0.083, 0.25, 0.5, 1, 2, 4, 6, 8, 12, 24, 48, and 72 h after administration in monkeys. Two hamsters given identical doses were sampled in a rotating manner.
The plasma samples were stored at −70 °C before the analysis and were thawed at room temperature. […] A sensitive, specific, and validated liquid chromatography coupled with a tandem mass spectrometer (HPLC-MS/MS) assay was used for the determination of CKD519 concentration in animal plasma samples. A structural analogue of CKD519 was used as the internal standard. The validated working range was from 2 ng/mL (the lower limit of quantification, LLOQ) to 20,000 ng/mL. Quality control (QC) samples were analyzed together with the study samples. Intra-day and inter-day precision and accuracy results were within the acceptance criteria based on the Ministry of Food and Drug Safety (MFDS) guidelines. An exploratory data analysis was performed through non-compartmental analysis (NCA) using the NonCompart package (developed by Bae, version 0.4.4) in R (version 3.5.1, The R Foundation, Vienna, Austria).
Using the PK data from each species, nonlinear mixed-effect modeling was conducted using NONMEM (version 7.4, Icon Development Solutions, Ellicott City, MD, USA) reflecting the clues from NCA. The first-order conditional estimation method with interaction (FOCE-I) was used whenever applicable. The adequacy of the model was checked using changes in the objective function value (OFV), visual inspection of various diagnostic plots (goodness-of-fit (GOF) plot), and methods of visual predictive check (VPC) and bootstrap were used for the diagnostics on the model stability and parameter reliability. The significance of model improvement was evaluated using a likelihood-ratio test (LRT). In the nested models, the result was considered statistically significant if the OFV decreased more than 3.84 (p-value < 0.05, degree of freedom (df) = 1) and 5.99 (p-value < 0.05, df = 2). The degree of freedom is defined as the gap of the numbers of parameters of the two subsequent models that are being compared. In the case of non-nested models, the Akaike information criteria (AIC) value was used to select the model that best described the data. R (version 3.5.1., R Foundation for Statistical Computing, Vienna, Austria) was used for data preparation, NCA, graphical analysis, model diagnostics, and statistical summaries.
Initially, a two-compartment model with first-order absorption was developed to describe the biphasic curve, and several absorption structures (e.g., zero-order with absorption lag time, Weibull-type absorption) were applied to the base model if needed. The change in absolute bioavailability (F) by dose levels was also considered. […]

[4] = brain weight-corrected, estimate
[5] = PK model, final estimate (%RSE)
[6] = intravenous 0.1 mg/kg, NCA, mean ± SD
[7] = two-compartment PK model, final estimate (%RSE)

θ5 Coefficient for Q ([1]; brain weight-corrected, Q = θ5 × WT^θ6/BrW, estimate): 0.846
θ3 Coefficient for Vc [1, 4]: 0.0735
θ7 Coefficient for Vp [1, 4]: 0.813
α Scale parameter of WB [1, 4]: 4.51
β Shape parameter of WB [1, 4]: 3.11
θ6 Exponent of Q [1, 4]: 2.04
ωCL Interindividual variability of CL [1, 4]: 25.9%
ωQ Interindividual variability of Q [1, 4]: 60.8%
ωα Interindividual variability of α [1, 4]: 27.0%
ωβ Interindividual variability of β [1, 4]: 24.0%
θ5 Coefficient for Q ([1]; simple allometry, Q = θ5 × WT^θ6, estimate): 0.0549
θ3 Coefficient for Vc ([1]; simple allometry, estimate): 0.0755
θ7 Coefficient for Vp ([1]; simple allometry, estimate): 0.829
α Scale parameter of WB ([1]; simple allometry, estimate): 4.50
β Shape parameter of WB ([1]; simple allometry, estimate): 3.01
θ6 Exponent of Q ([1]; simple allometry, estimate): 0.670
ωCL Interindividual variability of CL ([1]; simple allometry, estimate): 42.8%
ωQ Interindividual variability of Q ([1]; simple allometry, estimate): 23.9%
ωα Interindividual variability of α ([1]; simple allometry, estimate): 27.1%
ωβ Interindividual variability of β ([1]; simple allometry, estimate): 65.7%
off-target effects [2]: no off-target effects
α (scale parameter of Weibull absorption) [3, 5]: 5.44 (11.8%)
β (shape parameter of Weibull absorption) [3, 5]: 3.54 (6.50%)
AUClast [3, 6]: 5150 ± 1530 ng·h/mL
V/F * (V for intravenous) [3, 6]: 3500 ± 1380 mL
ke [3, 6]: 0.0105 ± 0.00836 h⁻¹
t1/2 [3, 6]: 104 ± 80.0 h
Tmax ([3]; intravenous 0.1 mg/kg, NCA): 0.1665 (0.083–0.25) h
AUClast ([3]; oral 1 mg/kg, NCA, mean ± SD): 8940 ± 954 ng·h/mL
CL/F ([3]; oral 1 mg/kg, NCA, mean ± SD): 230 ± 64.6 mL/h
Cmax ([3]; oral 1 mg/kg, NCA, mean ± SD): 752 ± 148 ng/mL
V/F ([3]; oral 1 mg/kg, NCA, mean ± SD): 17600 ± 4000 mL
ke ([3]; oral 1 mg/kg, NCA, mean ± SD): 0.0140 ± 0.0057 h⁻¹
t1/2 ([3]; oral 1 mg/kg, NCA, mean ± SD): 59.9 ± 35.5 h
Tmax ([3]; oral 1 mg/kg, NCA): 5.5 (5–6) h
AUClast ([3]; oral 5 mg/kg, NCA, mean ± SD): 29500 ± 4840 ng·h/mL
CL/F ([3]; oral 5 mg/kg, NCA, mean ± SD): 309 ± 77.3 mL/h
Cmax ([3]; oral 5 mg/kg, NCA, mean ± SD): 4700 ± 1100 ng/mL
V/F ([3]; oral 5 mg/kg, NCA, mean ± SD): 50500 ± 16900 mL
ke ([3]; oral 5 mg/kg, NCA, mean ± SD): 0.00707 ± 0.00412 h⁻¹
t1/2 ([3]; oral 5 mg/kg, NCA, mean ± SD): 125 ± 64.6 h
Tmax ([3]; oral 5 mg/kg, NCA): 7 (6–8) h
AUClast ([3]; oral 30 mg/kg, NCA, mean ± SD): 79100 ± 15600 ng·h/mL
CL/F ([3]; oral 30 mg/kg, NCA, mean ± SD): 999 ± 123 mL/h
Cmax ([3]; oral 30 mg/kg, NCA, mean ± SD): 10200 ± 2390 ng/mL
V/F ([3]; oral 30 mg/kg, NCA, mean ± SD): 67800 ± 44900 mL
ke ([3]; oral 30 mg/kg, NCA, mean ± SD): 0.0194 ± 0.0104 h⁻¹
t1/2 ([3]; oral 30 mg/kg, NCA, mean ± SD): 46.3 ± 26.8 h
Tmax ([3]; oral 30 mg/kg, NCA): 8 (8–8) h
CL [3, 7]: 0.0344 (24.0%) L/h
Q [3, 7]: 0.0895 (49.9%) L/h
Vc [3, 7]: 0.383 (74.7%) L
Vp [3, 7]: 3.40 (51.5%) L
Structure (SMILES): COc1cc(F)c(C(C)C)cc1C1=C(CN2C(=O)O[C@H](c3cc(C(F)(F)F)cc(C(F)(F)F)c3)[C@@H]2C)CC(C)(C)CC1 [CKD519]
